Laboratory results published in publication PMC3793924, “Targeting Androgen Receptor/Src Complex Impairs the Aggressive Phenotype of Human Fibrosarcoma Cells” (PLoS ONE, 2013).

Legend:
HT1080 cell xenografts = HT1080 cell xenografts in nude male mice, tumor mass; assay type: in vivo; details: i.p. on alternate days for 4 weeks, Casodex 0.1 μg/mice (4 µg/Kg), DHT 0,1 μg/mice (3 μg/Kg), six animals per group
Method: Figure 1 Casodex inhibits the EGF-triggered DNA synthesis in human fibrosarcoma HT1080 cells and reduces the growth of HT1080 xenografts. Human fibrosarcoma HT1080 cells were used. In A, quiescent cells on coverslips were left un-stimulated or stimulated for 18 h with the indicated compounds. […] After in vivo pulse with BrdU (100 μM; Sigma), BrdU incorporation was analyzed by IF and expressed as % of total nuclei. Several independent experiments were performed in duplicate and the results were derived from at least 400 scored cells for each coverslip. Mean and SEM are shown. n represents the number of experiments. (**) p value< 0,001. […] In B, xenografts were established in nude male mice as described in Methods. […] Volumes of HT1080 cell xenografts were measured at the indicated times in two dimensions by a caliper and expressed as tumor mass (mm^3). […]
HT1080 cells in 50% (v/v) Matrigel solution in phosphate-buffered saline (PBS; pH 7.4) were subcutaneously injected in the dorsal posterior region at 2.5 x 10^6 cells/male athymic mice (CD mice, Charles-River Italia) without hormone priming. […] The tumor volumes of HT1080 cell xenografts were measured at indicated intervals in two dimensions by a caliper and expressed as tumor mass (mm^3). This is calculated according to the formula: a^2 × b × 0.5, where a is the width and b is the length of the tumor. […]

[1] = Body weight of xenografted mice; assay type: in vivo; details: Casodex i.p. on alternate days, 4 weeks; weighed twice weekly
Excerpt: HT1080 cells in 50% (v/v) Matrigel solution in phosphate-buffered saline (PBS; pH 7.4) were subcutaneously injected in the dorsal posterior region at 2.5 x 10^6 cells/male athymic mice (CD mice, Charles-River Italia) without hormone priming. Animals were randomly selected for the treatment with Casodex (dissolved in 0.1% ethanol) or DHT (dissolved in 0.1% ethanol) or control vehicle intra-peritoneally for a total of 4 weeks. Each group consisted of six animals. For the treatment of each animal (average weight: 25.08 g), 200 μl of 1 μM Casodex (about 0.1 µg) in 0.1% ethanol or 200 μl of 1 μM DHT (about 3 μg/Kg body weight) or the same amount of vehicle alone were administered to the mice on alternate days. The tumor volumes of HT1080 cell xenografts were measured at indicated intervals in two dimensions by a caliper and expressed as tumor mass (mm^3). This is calculated according to the formula: a^2 × b × 0.5, where a is the width and b is the length of the tumor. Food and water were given ad libitum. […] Animal experimentation was reviewed and approved by the Animal Research Ethical Committee of “Istituto per la Diagnosi e la Cura dei Tumori- Fondazione “G. Pascale” (Naples-ITALY).

## CC(O)(CS(=O)(=O)c1ccc(F)cc1)C(=O)Nc1ccc(C#N)c(C(F)(F)F)c1 (centres unmarked) [Casodex]
HT1080 cell xenografts
  Growth of HT1080 xenografts (tumor mass): tumor growth was drastically reduced
[1]
  Body weight versus control mice: no difference in body weight
